Reference: PubChem BioAssay AID844 (SRMLSC, 2007)
Calls of active or inactive are those of the source. No rule for the calls is given here.

Test system: MRP1 cells, doxorubicin viability shift, 10 uM compound
Experiment: doxorubicin EC50 increase in MRP-1 cells, dose response, cell-based, doxorubicin EC50 shift (AID 844)
Settings: for EC50: measured here: doxorubicin EC50 with compound

Structure (SMILES): COc1ccc(NC(=O)C(=O)N/N=C/c2cc(C)n(-c3cccc(Cl)c3Cl)c2C)c(OC)c1
- fold increase in Dox EC50: 1.43 (inactive)
- EC50: 7.74 µM

Structure (SMILES): COc1cccc(/C=N/N2C(=O)CSC2=S)c1O
- fold increase in Dox EC50: 1.31 (inactive)
- EC50: 7.08 µM

Structure (SMILES): CC(O)(CS(=O)(=O)Cc1ccccc1)C(=O)Nc1ccc(C(F)(F)F)cc1 (stereo not drawn)
- fold increase in Dox EC50: 1.27 (inactive)
- EC50: 6.84 µM

Structure (SMILES): COC(=O)c1ccc(OC)c(CSc2nnc(COc3ccc(Cl)cc3)o2)c1
- fold increase in Dox EC50: 1.44 (inactive)
- EC50: 7.77 µM

Structure (SMILES): C=CCNC(=O)c1ccccc1NC(=O)c1ccc(Cl)c(S(=O)(=O)Nc2cccc(C)c2C)c1
- fold increase in Dox EC50: 0.36 (inactive)
- EC50: 1.96 µM

Structure (SMILES): Cc1ccc(CN2C(=O)NC(=O)C3(Cc4c(nc5ccccn5c4=O)N4CCCCCC43)C2=O)cc1 (stereo not drawn)
- fold increase in Dox EC50: 1.02 (inactive)
- EC50: 5.51 µM

Structure (SMILES): COc1cc(NS(=O)(=O)c2ccc(C)cc2)ccc1-n1cnnn1
- fold increase in Dox EC50: 1.02 (inactive)
- EC50: 5.51 µM

Structure (SMILES): O=C(NC(=S)Nc1ccccn1)c1cc(-c2ccccc2)nc2ccccc12
- fold increase in Dox EC50: 0.91 (inactive)
- EC50: 4.93 µM

Structure (SMILES): NNC(=O)CNC(c1ccccc1)c1cc(Br)ccc1NC(=O)c1cccc(Cl)c1 (stereo not drawn)
- fold increase in Dox EC50: 1.21 (inactive)
- EC50: 6.53 µM

Structure (SMILES): COc1ccc2cc(-c3cc(C(=O)O)c4ccccc4n3)ccc2c1
- fold increase in Dox EC50: 1.07 (inactive)
- EC50: 5.75 µM

Structure (SMILES): COc1ncnc2c1oc1nc(CC(C)C)c3c(c12)CCCC3
- fold increase in Dox EC50: 0.66 (inactive)
- EC50: 3.57 µM

Structure (SMILES): O=C(N/N=C/c1ccc(-c2ccc([N+](=O)[O-])cc2)o1)C(O)c1ccccc1 (stereo not drawn)
- fold increase in Dox EC50: 0.74 (inactive)
- EC50: 3.97 µM

Structure (SMILES): Cc1ccc2nc(/N=C(\N)NC(=O)N3c4ccccc4Sc4ccccc43)nc(C)c2c1
- fold increase in Dox EC50: 1.94
- EC50: 10.5 µM

Structure (SMILES): Cc1cc(C)c(S(C)(=O)=O)c(Sc2ccc(Cl)cc2)n1
- fold increase in Dox EC50: 0.81 (inactive)
- EC50: 4.38 µM

Structure (SMILES): Cc1cccc2cc(CN(Cc3cccs3)C(=S)NCc3ccco3)c(=O)[nH]c12
- fold increase in Dox EC50: 0.41 (inactive)
- EC50: 2.21 µM

Structure (SMILES): COc1ccc(-c2ocnc2C(=O)Nc2ccccc2N2CCCCC2)cc1
- fold increase in Dox EC50: 0.81 (inactive)
- EC50: 4.37 µM

Structure (SMILES): CCc1nnc(NC(=O)c2ccc(COc3ccc(C)cc3)o2)s1
- fold increase in Dox EC50: 1.33 (inactive)
- EC50: 7.18 µM

Structure (SMILES): COC(=O)N/N=C/c1ccc(-c2cc(Cl)cc(Cl)c2)o1
- fold increase in Dox EC50: 1.06 (inactive)
- EC50: 5.71 µM

Structure (SMILES): Cc1noc(/C=C/N(C)C)c1S(=O)(=O)N1CCCC(C(=O)NCc2ccccc2Cl)C1 (stereo not drawn)
- fold increase in Dox EC50: 0.82 (inactive)
- EC50: 4.42 µM

Structure (SMILES): Cc1ccc(/C=C2\SC(=S)N(CCCC(=O)Nc3nccs3)C2=O)cc1
- fold increase in Dox EC50: 0.3 (inactive)
- EC50: 1.64 µM

Structure (SMILES): COc1ccc(N(C(=O)Cn2cnc3ccccc32)C(C(=O)NC2CCCCC2)c2ccccc2)cc1 (stereo not drawn)
- fold increase in Dox EC50: 0.38 (inactive)
- EC50: 2.07 µM

Structure (SMILES): CNc1oc(-c2ccc(C)cc2)nc1P(=O)(c1ccccc1)c1ccccc1
- fold increase in Dox EC50: 0.95 (inactive)
- EC50: 5.13 µM

Structure (SMILES): CC(C)CCC1CC(CSC(=N)N)OC1=O (stereo not drawn)
- fold increase in Dox EC50: 0.68 (inactive)
- EC50: 3.68 µM

Structure (SMILES): COc1ccccc1NC(=O)c1sc2nc(-c3ccco3)ccc2c1N
- fold increase in Dox EC50: 0.85 (inactive)
- EC50: 4.61 µM

Structure (SMILES): COc1ccc(S(=O)(=O)N(CC(=O)N2CCN(c3ccccc3OC)CC2)c2ccccc2)cc1
- fold increase in Dox EC50: 0.46 (inactive)
- EC50: 2.49 µM

Structure (SMILES): Cc1cc(=O)oc2c1ccc1oc(/C(=N/O)c3ccccc3)c(C)c12
- fold increase in Dox EC50: 1.3 (inactive)
- EC50: 7.02 µM

Structure (SMILES): O=C(Cc1ccccc1)Nc1ccccc1Oc1ccccc1
- fold increase in Dox EC50: 0.69 (inactive)
- EC50: 3.71 µM

Structure (SMILES): O=C(NC(=S)Nc1ccccc1N1CCOCC1)c1ccc(-c2cccc(Cl)c2)o1
- fold increase in Dox EC50: 0.41 (inactive)
- EC50: 2.22 µM

Structure (SMILES): CCC(=O)c1ccc(N2CCOCC2)c(F)c1
- fold increase in Dox EC50: 1.32 (inactive)
- EC50: 7.12 µM
